In ChEMBL document CHEMBL1137551, “Estrogen receptor dependent inhibitors of NF-kappaB transcriptional activation-1 synthesis and biological evaluation of substituted 2-cyanopropanoic acid derivatives: pathway selective inhibitors of NF-kappaB, a potential treatment for rheumatoid arthritis” (J Med Chem, 2007):
Calls of active or inactive are those of the source. The calls are words filed in the database; no cut-off is given here.

Experiments:
[1] = tested on: Mus musculus; assay: Inhibition of NFkB mediated VCAM gene expression in C57BL/6 mouse at 5 mg/kg/day, po after 5 weeks; type: functional; conditions: C57BL/6, 840 h
[2] = tested on: Mus musculus; assay: Inhibition of NFkB mediated MHC gene expression in C57BL/6 mouse at 5 mg/kg/day, po after 5 weeks; type: functional; conditions: C57BL/6, 840 h
[3] = (§1) Inhibition of ER dependent NF-kappaB expression in ER expressing HAECT1 cells by luciferase reporter gene assay; type: cell-based; conditions: Homo sapiens
[4] = tested on: Mus musculus; assay: Increase in uterine wet weight in C57BL/6 mouse at 5 mg/kg/day, po after 5 days relative to control; type: functional
[5] = tested on: Mus musculus; assay: Inhibition of NFkB mediated TNFalpha gene expression in C57BL/6 mouse at 5 mg/kg/day, po after 5 weeks relative to 17-alpha-ethinyl-17beta-estradiol; type: functional; set-up: scale not given: the % may be the effect or the level left
[6] = (§2) Inhibition of ER dependent creatine kinase expression in ER expressing HAECT1 cells; type: cell-based; conditions: Homo sapiens
[7] = tested on: HAECT1; assay: Inhibition of ER dependent creatine kinase expression in ER expressing HAECT1 cells at 10 uM relative to E2; type: cell-based; conditions: Homo sapiens
[8] = tested on: Mus musculus; assay: Inhibition of NFkB mediated MHC gene expression in C57BL/6 mouse at 5 mg/kg/day, po after 5 weeks relative to 17-alpha-ethinyl-17beta-estradiol; type: functional; set-up: scale not given: the % may be the effect or the level left
[9] = tested on: Mus musculus; assay: Inhibition of NFkB mediated RANTES gene expression in C57BL/6 mouse at 5 mg/kg/day, po after 5 weeks; type: functional; conditions: C57BL/6, 840 h
[10] = tested on: HAECT1; assay: Inhibition of ER dependent NF-kappaB expression in ER expressing HAECT1 cells at 10 uM by luciferase reporter gene assay relative to E2; type: cell-based; conditions: Homo sapiens
[11] = tested on: Mus musculus; assay: Inhibition of NFkB mediated VCAM gene expression in C57BL/6 mouse at 5 mg/kg/day, po after 5 weeks relative to 17-alpha-ethinyl-17beta-estradiol; type: functional; set-up: scale not given: the % may be the effect or the level left
[12] = tested on: Mus musculus; assay: Inhibition of NFkB mediated RANTES gene expression in C57BL/6 mouse at 5 mg/kg/day, po after 5 weeks relative to 17-alpha-ethinyl-17beta-estradiol; type: functional; set-up: scale not given: the % may be the effect or the level left
[13] = tested on: Mus musculus; assay: Inhibition of NFkB mediated TNFalpha gene expression in C57BL/6 mouse at 5 mg/kg/day, po after 5 weeks; type: functional; conditions: C57BL/6, 840 h
[14] = tested on: HAECT1; assay: as §1; type: cell-based; conditions: Homo sapiens
[15] = tested on: HAECT1; assay: as §2; type: cell-based; conditions: Homo sapiens
[16] = tested on: Rattus norvegicus; assay: Inhibition of 17-alpha-ethinyl-17beta-estradiol induced uterine wet weight in Sprague-Dawley rat at 2 mg/kg/day; type: functional, organism-based
[17] = tested on: Rattus norvegicus; assay: Inhibition of adjuvant-induced arthritis in Lewis rat assessed as improvement in synovial scoring at 0.3 mg/kg/day, po; type: functional; set-up: scale not given: the % may be the effect or the level left
[18] = molecular target: T1, Estrogen receptor (Homo sapiens, UniProt P03372); assay: Displacement of [3H]E2 from human ERalpha ligand binding domain
T1 sequence (P03372 whole entry): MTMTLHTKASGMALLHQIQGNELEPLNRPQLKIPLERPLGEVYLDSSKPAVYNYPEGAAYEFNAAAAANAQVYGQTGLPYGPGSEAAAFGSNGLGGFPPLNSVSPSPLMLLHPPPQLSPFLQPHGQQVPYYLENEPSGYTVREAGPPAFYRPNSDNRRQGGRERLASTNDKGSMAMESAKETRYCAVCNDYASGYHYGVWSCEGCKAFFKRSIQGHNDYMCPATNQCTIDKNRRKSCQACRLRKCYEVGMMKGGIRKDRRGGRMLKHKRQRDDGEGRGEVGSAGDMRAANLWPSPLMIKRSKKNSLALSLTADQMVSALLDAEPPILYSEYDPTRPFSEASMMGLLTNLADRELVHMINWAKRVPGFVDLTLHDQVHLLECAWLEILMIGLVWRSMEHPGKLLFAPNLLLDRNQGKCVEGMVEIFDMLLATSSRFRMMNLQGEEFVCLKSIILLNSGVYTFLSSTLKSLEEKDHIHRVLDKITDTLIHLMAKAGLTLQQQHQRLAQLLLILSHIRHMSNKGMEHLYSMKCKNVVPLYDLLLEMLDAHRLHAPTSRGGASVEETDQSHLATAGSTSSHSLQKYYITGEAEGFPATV

[19] = tested on: Rattus norvegicus; assay: Stimulation of uterine wet weight in Sprague-Dawley rat at 2 mg/kg/day; type: functional, organism-based
[20] = molecular target: Estrogen receptor beta (Homo sapiens, UniProt Q92731); assay: Displacement of [3H]E2 from human ERbeta ligand binding domain
[21] = tested on: Plasma; assay: Stability in mouse plasma assessed as hydrolysis after 4 hr at 37 deg C; type: ADME, cell-free; set-up: scale not given: the % may be the effect or the level left
[22] = tested on: Plasma; assay: Stability in mouse plasma assessed as hydrolysis after 24 hr at 37 deg C; type: ADME, cell-free; set-up: scale not given: the % may be the effect or the level left
[23] = Inhibition of ER dependent IL6 expression in ER expressing HAECT1 cells; type: cell-based; conditions: Homo sapiens
[24] = tested on: HAECT1; assay: Inhibition of ER dependent IL6 expression in ER expressing HAECT1 cells at 10 uM relative to E2; type: cell-based; conditions: Homo sapiens
[25] = tested on: HAECT1; assay: Inhibition of ER dependent NF-kappaB expression in ER expressing HAECT1 cells at 1 uM by luciferase reporter gene assay; type: cell-based; conditions: Homo sapiens

Chain of Estrogen receptor beta (Q92731 whole entry, the tested form may be a part): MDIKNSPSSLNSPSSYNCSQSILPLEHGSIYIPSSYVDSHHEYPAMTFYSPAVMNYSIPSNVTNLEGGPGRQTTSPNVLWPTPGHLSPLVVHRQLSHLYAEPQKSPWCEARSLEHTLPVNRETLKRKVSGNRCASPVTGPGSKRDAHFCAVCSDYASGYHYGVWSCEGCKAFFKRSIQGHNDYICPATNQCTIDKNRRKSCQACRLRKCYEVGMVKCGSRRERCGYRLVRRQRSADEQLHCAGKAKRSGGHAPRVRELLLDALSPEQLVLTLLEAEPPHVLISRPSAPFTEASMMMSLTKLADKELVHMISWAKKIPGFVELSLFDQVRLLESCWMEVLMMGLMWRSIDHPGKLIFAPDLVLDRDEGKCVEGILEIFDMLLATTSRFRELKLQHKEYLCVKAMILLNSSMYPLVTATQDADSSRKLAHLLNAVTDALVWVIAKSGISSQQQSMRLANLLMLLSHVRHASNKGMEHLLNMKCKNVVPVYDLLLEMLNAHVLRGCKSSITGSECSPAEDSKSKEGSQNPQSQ

Row | IC50 [3] [nM] | EC50 [6] [nM] | Compound | Efficacy [7] [%] | Efficacy [10] [%] | Activity [15] | further results
1 | 23 | 84 | COc1ccccc1[C@H](c1cccc2ccccc12)[C@@](C)(C#N)C(=O)N1CCN(c2cccc(Cl)c2C)CC1 | 41 | 99 |  | inhibition in vivo at 5 mg/kg/day [1]: 24%; inhibition in vivo at 5 mg/kg/day [2]: 20%; Fold change [4]: 1.1; Activity [5]: 82%; Activity [8]: 41%; inhibition in vivo at 5 mg/kg/day [9]: 35%; Activity [11]: 47%; Activity [12]: 45%; inhibition in vivo at 5 mg/kg/day [13]: 58%
2 |  |  | CCOC(=O)C(C#N)C(c1ccc(OC)cc1OC)c1cccc2ccccc12 (configuration not stated) |  |  | inactive | Activity [14]: inactive
3 | 1900 |  | N#CC(C(N)=O)C(c1cccc2ccccc12)c1cccc2ccccc12 (configuration not stated) |  | 55 | inactive | 
4 |  |  | CCOC(=O)C(C#N)C(c1cccc(OC)c1)c1cccc2ccccc12 (configuration not stated) |  |  | inactive | Activity [14]: inactive
5 | 550 |  | CCOC(=O)C(C#N)C(c1ccc(C)cc1)c1cccc2ccccc12 (configuration not stated) |  | 64 | inactive | 
6 | 122 |  | COc1ccccc1[C@H](c1cccc2ccccc12)[C@@](C)(C#N)C(=O)N1CCC(c2cccc(C(F)(F)F)c2)CC1 |  | 94 | inactive | Activity [16]: inactive; inhibition in vivo at 5 mg/kg/day [1]: 48%; inhibition in vivo at 5 mg/kg/day [2]: 42%; Activity [17]: 50%; Fold change [4]: 1; Activity [5]: 83%; IC50 [18]: 2430 nM; Activity [19]: inactive; Activity [8]: 86%; inhibition in vivo at 5 mg/kg/day [9]: 50%; Activity [11]: 94%; Activity [12]: 65%; inhibition in vivo at 5 mg/kg/day [13]: 59%; IC50 [20]: 1500 nM
7 | 105 | 98 | CCOC(=O)C(C)(C#N)C(c1ccccc1OC)c1cccc2ccccc12 (configuration not stated) | 33 | 110 |  | 
8 | 125 | 259 | COc1ccccc1[C@H](c1cccc2ccccc12)[C@@](C)(C#N)C(=O)N1CCCCC1 | 37 | 92 |  | 
9 |  |  | N#CC(C(=O)O)C(c1cccc2ccccc12)c1cccc2ccccc12 (configuration not stated) |  |  | inactive | Activity [14]: inactive
10 | 327 |  | CCOC(=O)C(C)(C#N)C(c1ccccc1SC)c1cccc2ccccc12 (configuration not stated) |  | 65 | inactive | 
11 | 119 | 38 | COc1ccccc1C(c1cccc2ccccc12)C(C)(C#N)C(=O)OC(C)(C)C (configuration not stated) | 24 | 94 |  | Stability [21]: 32%; Stability [22]: 0%
12 | 118 | 197 | CCOC(=O)C(C#N)C(c1ccccc1SC)c1cccc2ccccc12 (configuration not stated) | 24 | 102 |  | 
13 |  |  | C#C[C@]1(O)CC[C@H]2[C@@H]3CCc4cc(O)ccc4[C@H]3CC[C@@]21C [ETHINYL ESTRADIOL] |  |  |  | inhibition in vivo at 5 mg/kg/day [1]: 58%; inhibition in vivo at 5 mg/kg/day [2]: 64%; Fold change [4]: 4; inhibition in vivo at 5 mg/kg/day [9]: 58%; inhibition in vivo at 5 mg/kg/day [13]: 60%
14 | 268 |  | CCOC(=O)C(C)(C#N)C(c1ccccc1[N+](=O)[O-])c1cccc2ccccc12 (configuration not stated) |  | 112 | inactive | 
15 | 389 |  | CCOC(=O)C(C#N)C(c1ccc2ccccc2c1)c1cccc2ccccc12 (configuration not stated) |  | 76 | inactive | 
16 | 550 |  | CCOC(=O)C(C#N)C(c1cccc2ccccc12)c1cccc2ccccc12 (configuration not stated) |  | 96 | inactive | IC50 [23]: 185 nM; Efficacy [24]: 91%
17 |  |  | CCOC(=O)C(C#N)C(c1cccc2ccccc12)c1ccnc2ccccc12 (configuration not stated) |  | 4 |  | inhibition [25]: 3%
18 |  |  | CCOC(=O)C(C#N)C(c1ccccc1F)c1cccc2ccccc12 (configuration not stated) |  | 32 |  | inhibition [25]: 19%
19 | 110 | 240 | CCOC(=O)C(C#N)C(c1ccccc1C(F)(F)F)c1cccc2ccccc12 (configuration not stated) | 24 | 106 |  | 
20 | 139 | 233 | CCOC(=O)C(C#N)C(c1ccccc1OC)c1cccc2ccccc12 (configuration not stated) | 32 | 90 |  | 
21 | 206 |  | CCOC(=O)C(C)(C#N)C(c1cccc2ccccc12)c1cccc2ccccc12 (configuration not stated) |  | 96 | inactive | 
22 | 792 |  | CCOC(=O)C(C#N)C(c1ccccc1)c1cccc2ccccc12 (configuration not stated) |  | 96 | inactive | 
